Results: ChEMBL document CHEMBL1201862, “PubChem BioAssay data set” (2004)
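Test compounds were applied to cells in 96-well plates for 48 hours at 5 doses. GI50 marks 50% less growth.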 Activity calls are given as the source filed them. Cut-off read from the data, not from the text of the source: active = GI50 up to about 1.1 µM and inactive = higher.

Experiments:
Test in all cases: NCI tumour cell line growth inhibition, 48 h
786-0 = system: 786-0
A498 = system: A498
A549 = system: A549
ACHN = system: ACHN
CAKI-1 = system: CAKI-1
CCRF-CEM = system: CCRF-CEM
COLO 205 = system: COLO 205
DLD-1 = system: DLD-1
DMS-273 = system: DMS-273
EKVX = system: EKVX
HCC 2998 = system: HCC 2998
HCT-116 = system: HCT-116
HCT-15 = system: HCT-15
HL-60 = system: HL-60
HOP-18 = system: HOP-18
HOP-62 = system: HOP-62
HOP-92 = system: HOP-92
HT-29 = system: HT-29
IGROV-1 = system: IGROV-1
K562 = system: K562
KM-20L2 = system: KM-20L2
KM12 = system: KM12
LOX IMVI = system: LOX IMVI
LXFL 529 = system: LXFL 529
M14 = system: M14
M19-MEL = system: M19-MEL
MOLT-4 = system: MOLT-4
Malme-3M = system: Malme-3M
NCI-H226 = system: NCI-H226
NCI-H23 = system: NCI-H23
NCI-H460 = system: NCI-H460
OVCAR-3 = system: OVCAR-3
OVCAR-4 = system: OVCAR-4
OVCAR-5 = system: OVCAR-5
OVCAR-8 = system: OVCAR-8
RPMI-8226 = system: RPMI-8226
RXF 393 = system: RXF 393
SF-268 = system: SF-268
SF-295 = system: SF-295
SF-539 = system: SF-539
SK-MEL-28 = system: SK-MEL-28
SK-MEL-5 = system: SK-MEL-5
SK-OV-3 = system: SK-OV-3
SN12C = system: SN12C
SNB-19 = system: SNB-19
SNB-75 = system: SNB-75
SNB-78 = system: SNB-78
SR = system: SR
SW-620 = system: SW-620
TK-10 = system: TK-10
U-251 = system: U-251
UACC-257 = system: UACC-257
UACC-62 = system: UACC-62
UO-31 = system: UO-31
XF498 = system: XF498
DMS-114 = system: DMS-114
MCF7 = system: MCF7
NCI-H522 = system: NCI-H522
NCI/ADR-RES = system: NCI/ADR-RES
SK-MEL-2 = system: SK-MEL-2

OCCCc1cnco1
GI50 (786-0): > 100 µM (inactive)
GI50 (A498): > 100 µM (inactive)
GI50 (A549): > 100 µM (inactive)
GI50 (ACHN): > 100 µM (inactive)
GI50 (CAKI-1): > 100 µM (inactive)
GI50 (CCRF-CEM): > 100 µM (inactive)
GI50 (COLO 205): > 100 µM (inactive)
GI50 (DLD-1): > 100 µM (inactive)
GI50 (DMS-273): > 100 µM (inactive)
GI50 (EKVX): > 100 µM (inactive)
GI50 (HCC 2998): > 100 µM (inactive)
GI50 (HCT-116): > 100 µM (inactive)
GI50 (HCT-15): > 100 µM
GI50 (HL-60): > 100 µM (inactive)
GI50 (HOP-18): > 100 µM (inactive)
GI50 (HOP-62): > 100 µM (inactive)
GI50 (HOP-92): > 100 µM (inactive)
GI50 (HT-29): > 100 µM (inactive)
GI50 (IGROV-1): > 100 µM (inactive)
GI50 (K562): > 100 µM (inactive)
GI50 (KM-20L2): > 100 µM (inactive)
GI50 (KM12): > 100 µM (inactive)
GI50 (LOX IMVI): > 100 µM (inactive)
GI50 (LXFL 529): > 100 µM (inactive)
GI50 (M14): > 100 µM (inactive)
GI50 (M19-MEL): > 100 µM (inactive)
GI50 (MOLT-4): > 100 µM (inactive)
GI50 (Malme-3M): > 100 µM (inactive)
GI50 (NCI-H226): > 100 µM (inactive)
GI50 (NCI-H23): > 100 µM (inactive)
GI50 (NCI-H460): > 100 µM (inactive)
GI50 (OVCAR-3): > 100 µM (inactive)
GI50 (OVCAR-4): > 100 µM (inactive)
GI50 (OVCAR-5): > 100 µM (inactive)
GI50 (OVCAR-8): > 100 µM (inactive)
GI50 (RPMI-8226): > 100 µM (inactive)
GI50 (RXF 393): > 100 µM (inactive)
GI50 (SF-268): > 100 µM (inactive)
GI50 (SF-295): > 100 µM (inactive)
GI50 (SF-539): > 100 µM (inactive)
GI50 (SK-MEL-28): > 100 µM (inactive)
GI50 (SK-MEL-5): > 100 µM (inactive)
GI50 (SK-OV-3): > 100 µM (inactive)
GI50 (SN12C): > 100 µM (inactive)
GI50 (SNB-19): > 100 µM (inactive)
GI50 (SNB-75): > 100 µM (inactive)
GI50 (SNB-78): > 100 µM (inactive)
GI50 (SR): > 100 µM (inactive)
GI50 (SW-620): > 100 µM (inactive)
GI50 (TK-10): > 100 µM (inactive)
GI50 (U-251): > 100 µM (inactive)
GI50 (UACC-257): > 100 µM (inactive)
GI50 (UACC-62): > 100 µM (inactive)
GI50 (UO-31): > 100 µM (inactive)
GI50 (XF498): > 100 µM (inactive)

Nc1c(C(=O)Nc2ccc(C3=NCCN3)cc2)cccc1C(=O)Nc1ccc(C2=NCCN2)cc1
GI50 (A498): > 100 µM (inactive)
GI50 (A549): > 100 µM (inactive)
GI50 (CAKI-1): > 100 µM (inactive)
GI50 (CCRF-CEM): > 100 µM (inactive)
GI50 (COLO 205): > 100 µM (inactive)
GI50 (DLD-1): > 100 µM (inactive)
GI50 (DMS-114): > 100 µM (inactive)
GI50 (DMS-273): > 100 µM (inactive)
GI50 (HCC 2998): > 71.6 µM (inactive)
GI50 (HCT-116): > 100 µM (inactive)
GI50 (HCT-15): > 100 µM
GI50 (HL-60): > 100 µM (inactive)
GI50 (HOP-18): > 100 µM (inactive)
GI50 (HOP-92): > 100 µM (inactive)
GI50 (HT-29): > 100 µM (inactive)
GI50 (IGROV-1): > 100 µM (inactive)
GI50 (K562): > 100 µM (inactive)
GI50 (KM-20L2): > 100 µM (inactive)
GI50 (KM12): > 100 µM (inactive)
GI50 (LOX IMVI): > 100 µM (inactive)
GI50 (M19-MEL): > 100 µM (inactive)
GI50 (MCF7): > 100 µM (inactive)
GI50 (MOLT-4): > 100 µM (inactive)
GI50 (Malme-3M): > 100 µM (inactive)
GI50 (NCI-H226): > 100 µM (inactive)
GI50 (NCI-H23): > 100 µM (inactive)
GI50 (NCI-H460): > 100 µM (inactive)
GI50 (NCI-H522): > 65.2 µM (inactive)
GI50 (NCI/ADR-RES): > 100 µM (inactive)
GI50 (OVCAR-3): > 100 µM (inactive)
GI50 (OVCAR-4): > 100 µM (inactive)
GI50 (OVCAR-5): > 100 µM (inactive)
GI50 (OVCAR-8): 65.3 µM (inactive)
GI50 (RPMI-8226): > 100 µM (inactive)
GI50 (RXF 393): > 100 µM (inactive)
GI50 (SF-268): > 100 µM (inactive)
GI50 (SF-295): > 100 µM (inactive)
GI50 (SF-539): > 100 µM (inactive)
GI50 (SK-MEL-28): > 100 µM (inactive)
GI50 (SK-MEL-2): > 100 µM (inactive)
GI50 (SK-MEL-5): > 100 µM (inactive)
GI50 (SK-OV-3): > 100 µM (inactive)
GI50 (SN12C): > 88.1 µM (inactive)
GI50 (SNB-19): > 100 µM (inactive)
GI50 (SNB-75): > 64.9 µM (inactive)
GI50 (SNB-78): > 83.8 µM (inactive)
GI50 (SW-620): > 100 µM (inactive)
GI50 (U-251): 53.5 µM (inactive)
GI50 (UACC-257): > 100 µM (inactive)
GI50 (UACC-62): > 100 µM (inactive)
GI50 (UO-31): > 100 µM (inactive)
GI50 (XF498): > 100 µM (inactive)
